# Laboratory results: patent US20260286322A1, “PROTEIN TYROSINE P[…] DOMAIN PEPTIDE DIMER FOR NERVOUS SYSTEM REPAIR” (NervGen Pharma Corp., priority 2023, published 2026)
# Columns and labels:
# [1] = system: SCI rats; assay: BBB sub-score (toe clearance, paw position, trunk stability, tail position) in SCI rats; format: in vivo, rat
# Method: Animals were prepared according to the methods described above in Example 3.
# Lyophilized Compound 8 and Compound 4 were separately dissolved in saline and injected s.c. at a volume of 500 μl to animal once daily from day 1-day 49 post spinal cord injury.
# The target dose concentration was 0.8 mg/ml. After reconstitutions, the solutions were aliquoted and kept at −20° C. until dosing.
# 12-13 rats were used in each of the following three groups: • 1) Control group: SCI+saline alone • 2) Testing group: SCI+Compound 4 in saline • 3) Testing group: SCI+Compound 8 in saline.
# Spinal cord injury (SCI) was introduced to the animals and post-operative care was provided to the animals according to the methods described in Example 3.
# The BBB sub-scores quantify the recovery of toe clearance, paw position, trunk stability and tail use independent of forelimb-hindlimb coordination. BBB sub-scores were calculated using the observations recorded in the BBB records sheets. During BBB testing, the predominant position of the hind paws (parallel vs rotated), toe clearance, trunk stability and tail position (up, down, middle) were evaluated for animals reaching a BBB score of 10 or higher. Animals scoring less than 10 in BBB scale were considered to have BBB sub-score of “0”.
# As described above in Example 3, the upper points on the BBB scale (14-21) quantify fine motor movements associated with hind limb locomotor including toe clearance, predominant paw position, trunk stability, and tail position. These fine motor movements are only considered if animals display consistent coordination. A BBB sub-score was applied to quantify these improvements independent of coordination.
# FIG. 8B depicts violin plots presenting distributions of the weekly average BBB sub-scores in the saline alone, Compound 4, and Compound 8 treatment cohorts of SCI rats. Each data point represents a weekly average BBB sub-score in the saline alone (control), Compound 4, and Compound 8 treatment cohorts as annotated on the X-axis. The numbers adjacent to the data points indicate the numbers of days post-SCI at which individual and treatment cohort weekly average BBB sub-scores were calculated. Statistical comparison of the treatment effects was performed using Friedman's test (repeated measures ANOVA for nonparametric values) with Dunn's correction for multiple comparisons and p-value of less than 0.05 defined as the criterion of statistical significance.
# [2] = system: rat model of thoracic traumatic Spinal Cord Injury (SCI); assay: Bladder function, bladder score and urinary complications in SCI rats; format: in vivo
# Method: Lyophilized Compound 8 was dissolved in saline and injected s.c. at a volume of 500 μl to animal once daily from day 1-day 49 post spinal cord injury.
# The dose concentration was 0.8 mg/ml, corresponding to 400 μg/rat. After reconstitutions, the solution was aliquoted and kept at −20° C. until dosing.
# Spinal cord injury (SCI) was introduced to the rats by surgery using the Infinite Horizon (IH) Impactor (200 kDyn force) described by Scheff et al. 2003. The surgery was performed with aseptic procedures in a designated area under deep anesthesia. Rats were anesthetized with isoflurane (4% for induction, 2% for maintenance), and O2 (300 cm^3/min) mixture. Hair was removed from the surgical site with clippers and the skin wase scrubbed with an antiseptic detergent. To maintain body temperature the animals were placed upon a homoeothermic blanket system. The T8 Vertebra of the rat was located externally, and an incision was made exposing the vertebral column from T6-T11. A laminectomy was performed using a surgical microscope to expose the dorsal spinal cord at the thoracic (T8) vertebral level. The vertebral column was stabilized by clamping the nearest rostral and caudal vertebral processes and the injury was produced using the IH impactor device at a 200 kDyn force. After each lesion the IH graphs and impact data were reviewed and recorded, rats presenting an impact force more than 10% higher or lower than expected and/or any abnormality on the force/displacement impact graphs were excluded from the study. Additionally, animals scoring more than 1 points in the Basso, Beattie and Bresnahan (BBB) score scale at 1 days after SCI were excluded for the study as well.
# Starting the day after lesion animals were observed twice a day and bladders were manually expressed using gentle abdominal pressure. Any abnormal appearance of the urine (i.e. cloudy urine, bloody urine) was recorded, and the size of the bladder estimated by trained researchers in order to obtain a categorical score (bladder score) (empty bladders=0; extra-small bladders=1; small bladders=2, medium bladders=3, large bladders=4). Urinary complications (bloody urine, foul-smelling urine, urine-stained fur) were reported and treated with SC fluids twice a day, and antibiotic treatment if the issues persisted. Bladder expression continue until spontaneous voiding was observed (empty bladder for 3 consecutive days).
# During bladder expressions the size of each bladder was estimated by trained researchers and a semi-quantitative score was obtained. Daily estimates of urine retention were obtained by adding the bladder size scores of AM and PM bladder expressions. FIG. 5 illustrates the weekly average of urine retention in the rats in the testing group that were treated with Compound 8 in saline, compared to the rats in control group that were treated with vehicle control (saline).
# Urinary complications including bloody urine, foul-smelling urine, and urine-stained fur were monitored. When a new complication was observed after resolutions of a previous event, it was considered repetitive. Animals would be euthanized if the complications persisted after an additional cycle of antibiotics, when bladders could not be expressed or when general health deterioration was observed.
# Urinary complications, such as repetitive bloody urine, urine-stained fur and urinary infections were observed, recorded, and treated, as needed.
# In this study, the effects of Compound 8 in improving the recovery of open field locomotor performance and bladder function in the SCI rats were further evaluated in comparison with Compound 4 by assessing the BBB scores and bladder scores according to the methods described in Example 3.
# In this assessment, 12-13 rats were included in each of the following groups (1) Control group 1: SCI+saline alone; (2) Control group 2: SCI+Compound 4 in saline; (3) Testing group: SCI+Compound 8. […]
substance,measurement,setting,value
TAT-Cys-rodent PTPRS wedge domain homodimer [Compound 8],sustained trend of continued functional improvement in BBB sub-score,[1]; FIG. 8A,apparent
same,effect on weekly average BBB sub-score vs saline alone,"[1]; Friedman's test, Dunn's correction, p=0.0008 Compound 8, p>0.9999 Compound 4",statistically significant effect
same,effect on weekly average BBB sub-score vs Compound 4,"[1]; Friedman's test, Dunn's correction, p=0.0201",statistically significant effect
same,functional improvement (BBB sub-score achievers) after discontinuation of administration,[1]; after day 49,continued functional improvement
same,onset of functional improvement in BBB sub-score,"[1]; day post-SCI, 0.8 mg/ml, 500 μl s.c. once daily day 1-49",21 days
same,"percentage of rats achieving BBB sub-score of 1 or better, compared with Compound 4 or saline alone groups","[1]; each time point post-SCI, e.g. day 28, 42, 63, 70, 77, 84",higher
same,average weekly bladder scores compared with Compound 4 or saline alone,"[2]; RM ANOVA, Tukey, p=0.0001 vs saline, p=0.0085 vs Compound 4",significantly lower
same,Euthanasia due to Urinary Complications,[2]; during the course of the study,none
same,Repetitive Urinary Complications (animals),[2]; during the course of the study,1 out of 13
same,Repetitive Urinary Complications (percentage),[2]; during the course of the study,8%
same,Urinary Complications (animals),[2]; during the course of the study,4 out of 13
same,Urinary Complications (percentage),[2]; during the course of the study,31%
same,percentage of rats with bladder scores of 2 or better,[2]; during weeks 10 to 13,more than 40%
same,estimated size of bladders,[2]; evident from week 8 to 13,decrease in the estimated size of bladders
same,percentage of rats with bladder scores of 2 or better,[2]; starting on week 6 post-SCI,About 25%
same,frequency of urinary complications compared with vehicle control,[2]; vs rats receiving vehicle control,less frequent
same,urine retention (weekly average of estimated bladder size scores),"[2]; vs vehicle control, trend noticeable starting at week 4 after SCI",less urine retention
